Results on six compounds are retold here after paper PMC9993039, “Synthesis and radiolabelling of PSMA-targeted derivatives containing GYK/MVK cleavable linkers” (Royal Society Open Science, 2023).

For data set [1], the system named is renal brush border (RBB) enzymes. The conditions noted are these: Cy5 labelled model peptide; cited from earlier work. The source says: High kidney uptake of radiopharmaceuticals can usually be explained by the long residence time of radiometabolites generated after lysosomal proteolysis. This process is followed by glomerular filtration and reabsorption of the radiometabolites in renal cells. By inserting a linker which is specifically cleaved by enzymes on the brush border membrane located in the lumen of the proximal renal tubule, the radiometal-chelator moiety can be rapidly excreted via the bladder while the peptide remains in the kidneys. The MVK sequence was initially conjugated to antibody fragments by Uehara et ...

Data set [2] deals with metastatic castration-resistant prostate cancer. The note with it: cited from earlier work. The text has this: The prostate-specific membrane antigen (PSMA) is overexpressed in prostate cancer cells, and its expression increases with disease progression. PSMA is therefore an attractive target for TRT of prostate cancer. Currently, several compounds targeting this protein are being investigated for imaging and treatment of prostate cancer, with PSMA-617 advancing as a lead candidate (figure 1).

For data set [3] the following is noted: in vivo; cited from earlier work. The text has this:
The purpose of this study is to report the synthesis and radiolabelling of new PSMA derivatives containing: (i) a PSMA-targeting vector, (ii) an albumin binder, namely 4-(p-iodophenyl)butyric acid, (iii) an amino acid sequence which could be specifically recognized and cleaved by renal brush border (RBB) enzymes, and (iv) a DOTA chelator which can be labelled with In-111 for imaging or Lu-177 for therapy. Previous studies reported that presence of an albumin-binding moiety increases blood residence time of the radiopharmaceutical agent, and ultimately leads to a higher accumulation of the PSMA ...

Data set [4] is classed as in vitro ADME, mouse. As for the experimental part:
Stability was determined for both the In-111 and Lu-177 labelled compounds by mixing 20 µl of radiolabelled sample (approx. 5 MBq) with 80 µl phosphate buffered saline (PBS) (0.01 M, pH 7.4), or mixing 70 µl of radiolabelled sample (approx. 20 MBq) with 330 µl of mouse serum, and heating at 37°C for up to 24 h. After incubation, 50 µl of the mouse serum solution is added to a separate vial containing acetonitrile (50 µl) and the sample is centrifuged for 20 min. The supernatant and precipitate are separated, and the activity is measured to determine the binding to serum proteins. The supernatant is then analysed by radio-HPLC. The PBS solution is loaded directly onto the radio-HPLC.

Data set [5] deals with renal brush border enzymes. The conditions noted are these: labelled with gallium-68; cited from earlier work. The source says: We hypothesized that this radiolabelled impurity might come from the radiation-induced oxidation of the methionine residue of the cleavable linker. Bendre et al. recently synthesized DOTA-AmBz-M(O)VK(HTK01166)-OH, the oxidized analogue of the PSMA-targeted derivative DOTA-AmBz-MVK(HTK01166)-OH, and performed labelling with gallium-68. They observed that the oxidized product was not cleaved by the renal brush border enzymes. It confirms that oxidation of the methionine is undesirable, as it leads to loss of enzyme recognition and consequently less cleavage of the conjugate. This radiolys ...

The conditions of data set [6]: in vivo; cited from earlier work. The text has this:
In this study, we synthesized PSMA-targeted radiopharmaceuticals that combined an albumin binder and a cleavable linker to optimize their therapeutic efficacy. We selected the albumin-binder containing PSMA-617 derivative HTK01169 (figure 1), reported by Kuo et al., as a reference. [^177Lu]Lu-HTK01169 delivers an eightfold higher dose to the tumour than [^177Lu]Lu-PSMA-617, but also a 17-fold higher dose to the kidneys. The amino acid sequences Gly-Tyr-Lys (GYK) and Met-Val-Lys (MVK) were selected as the cleavable linkers. Effective cleavage of the MVK sequence in ^67/68Ga-labell ... || The purpose of this study is to report the synthesis and radiolabelling of new PSMA derivatives containing: (i) a PSMA-targeting vector, (ii) an albumin binder, namely 4-(p-iodophenyl)butyric acid, (iii) an amino acid sequence which could be specifically recognized and cleaved by renal brush border (RBB) enzymes, and (iv) a DOTA chelator which can be labelled with In-111 for imaging or Lu-177 for therapy. Previous studies reported that presence of an albumin-binding moiety increases blood residence time of the radiopharmaceutical agent, and ultimately leads to a higher accumulation of the PSMA ...
The source holds these as a separate data set.

[7] abbreviates: plus standard of care, versus standard of care, ref NCT03511664.

As to “H-GGGFK(Cy5)-NH2 [Cy5 labelled model peptide with GFK linker]”, the “cleavage on incubation with RBB enzymes” value in data set [1] is given as 82%.
For the compound [^177Lu]Lu-PSMA-617, the “patients who do not respond significantly to the treatment” value in data set [2] is “approximately 30%”. Also, the “incidence of adverse effects (grade 3 or 4)” value in data set [2] (human, in vivo) is given as 52.7%. For the same compound, the response rates entry in data set [2] (patients) is listed as “over 50%”. Moreover, in data set [2] (setting [7]), the “imaging-based progression free survival (median)” value is reported as 8.7 months and the “overall survival (median)” value was 15.3 months. In addition, in data set [3], the “uptake in the kidneys at 1 h” value is on record as “approximately 10 % IA g^−1” and the “uptake in the kidneys at 24 h” value is recorded as “less than 1 % IA g^−1”.
In the case of `N[C@@H](CCCCNC(=O)CN1CCN(CC(=O)O)CCN(CC(=O)O)CCN(CC(=O)O)CC1)C(=O)N[C@@H](Cc1ccc(O)cc1)C(=O)NCC(=O)NCCCC[C@H](NC(=O)[C@H](CCC(=O)O)NC(=O)CCCc1ccc(I)cc1)C(=O)NC[C@H]1CC[C@H](C(=O)N[C@@H](Cc2ccc3ccccc3c2)C(=O)NCCCC[C@H](NC(=O)N[C@@H](CCC(=O)O)C(=O)O)C(=O)O)CC1` [[^111In]-7] [metal not drawn], the “peak at 2.9 min (radiolabelled side-product) in mouse serum” value in data set [4] amounted to 62%.
In the case of DOTA-AmBz-M(O)VK(HTK01166)-OH, the “cleavage by renal brush border enzymes” value in data set [5] is “not cleaved”.
As to “H-GGGYK(Cy5)-NH2 [Cy5 labelled model peptide with GYK linker]”, in data set [1], the “cleavage on incubation with RBB enzymes” value is reported as “quantitative cleavage”.
For the compound `O=C(O)CC[C@H](NC(=O)N[C@@H](CCCCNC(=O)[C@H](Cc1ccc2ccccc2c1)NC(=O)[C@H]1CC[C@H](CNC(=O)[C@H](CCCCNC(=O)CN2CCN(CC(=O)O)CCN(CC(=O)O)CCN(CC(=O)O)CC2)NC(=O)[C@H](CCC(=O)O)NC(=O)CCCc2ccc(I)cc2)CC1)C(=O)O)C(=O)O` [[^177Lu]Lu-HTK01169, metal not drawn], in data set [6], the “radiation dose to the kidneys relative to [177Lu]Lu-PSMA-617” value is given as 17 fold and the “radiation dose to the tumour relative to [177Lu]Lu-PSMA-617” value is recorded as “eightfold”.
